Measurements as given in publication PMC10394516, “The pharmacokinetic profile of brensocatib and its effect on pharmacodynamic biomarkers including NE, PR3, and CatG in various rodent species” (Frontiers in Pharmacology, 2023).

Tests used:
[1] = system: PR3; experiment: Bone marrow PR3 activity after repeated dosing, Sprague Dawley rats; type: in vivo; conditions: for Reduction of PR3 activity vs vehicle / Change From Vehicle Control (%) PR3: 9 days
Procedure: Briefly, animals were weighed and randomized into different treatment groups. In total, three different dosing levels of brensocatib were tested in each species and strain; each QD dosing level was equivalent to 1.5-times the matching daily BID dose. For BID dosing, the second daily dose was administered 8-h post the morning dose. C57BL/6 mice were dosed either BID or QD for 7 consecutive days at 0/0, 0.5/0.75, 2/3, and 20/30 mg/kg/day (BID/QD). BALB/c mice were dosed for 7 consecutive days at 0/0, 0.2/0.3, 2/3, and 20/30 mg/kg/day (BID/QD). SD rats were dosed for 9 consecutive days at 0/0, 0.2/0.3, 2/3, and 20/30 mg/kg/day (BID/QD). Wistar rats were dosed for 7 consecutive days at 0/0, 0.2/0.3, 2/3, and 20/30 mg/kg/day (BID/QD).
At the completion of the study, animals were sacrificed 16–24 h post their final dose. The hind limb bones (femurs and tibias) were collected at necropsy for bone marrow analysis of NSP activities by kinetic enzymatic assays ([Basso et al., 2022]). See section Quantification of Bone Marrow NSP Activities for details.
(§1) For the mice, each animal had the femurs and tibias of both hind limbs harvested. For the rat, the femur and tibia from a single hind limb per animal was harvested. Bones were kept on wet ice until processing for bone marrow collection. In brief, bone cutters were used to cut the epiphysis (knobby ends) off the long bones to expose the bone marrow filled cavity. Each bone cavity was then flushed with 5 mL/bone (mouse) or 10 mL/bone (rat) of ice-cold RPMI media through a […] and collected in a 50-mL conical tube. Cells were spun down at 2,500 × g at 4°C for 5 min and the supernatant was aspirated. After which, bone marrow cells were lysed with 1X red blood cell (RBC) lysis buffer (Abcam, ab204733) to eliminate contaminating RBCs and washed with PBS to remove any residual RBC lysis buffer. The resulting white blood cells (WBC) were subsequently lysed with 1% (v/v) Triton X-100 in PBS. Lysates were added to 96-well plates and stored at −80°C until NSP analyses.
(§2) Bone marrow lysates prepared as described above were diluted and plated onto 96-well assay plates to quantify NSP activities as described previously ([Basso et al., 2022]). Briefly, peptide substrates for NE (N-Methoxysuccinyl-Ala-Ala-Pro-Val-7-amido-4-methylcoumarin; Sigma; St. Louis, MO; Excitation/Emission at 350/450 nm), PR3 ((7-Methoxycoumarin-4-yl)acetyl-lysyl-(picolinoyl)-Tyr-Asp-Ala-Lys-Gly-Asp-N-3-(2-4-dinitrophenyl)-2-3-diaminopropyonyl-NH2); GenScript; Piscataway, NJ; Excitation/Emission at 340/430 nm), and CatG (N-Succinyl-Ala-Ala-Pro-Phe p nitroanilide; Sigma; Absorbance at 405 nm) were added at a final assay concentration of 100 μM, 40 μM, and 200 μM, respectively, and either fluorescence or absorbance was quantified using a Synergy microplate reader (BioTek; Winooski, VT). The specific NSP activity in each sample was calculated as the total activity minus the activity in the presence of a specific NSP inhibitor (if used), including elastase inhibitor (Abcam) for NE, sivelestat (Abcam) for PR3, and cathepsin G inhibitor I (Cayman Chemical; Ann Arbor, MI) for CatG. NSP concentrations were interpolated based on their activities relative to the standard curves created using active human NE protein (Sigma), active human PR3 protein (Sigma), and active human CatG protein (Sigma), respectively. Due to unavailability of commercial mouse and/or rat NE, PR3, and CatG proteins, the corresponding human proteins were used instead since their catalytic ability is considered to be conserved across species. A portion of each cell lysate sample was retained for protein quantification using a Pierce™ BCA Protein Assay Kit (Thermo Fisher). The NSP activities were normalized for the cell lysate protein concentrations.
The Pierce™ BCA Protein Assay Kit was used to measure the total protein of the samples after lysis to allow for subsequent normalization. […]

[2] = system: PR3; experiment: PD recovery study, bone marrow PR3 activity, C57BL/6 mice; type: in vivo; conditions: for Percent change from vehicle PR3: bone marrow
Procedure: A PD recovery study was performed in female C57BL/6 mice dosed BID for 8 consecutive days. Mice were dosed by oral gavage either with vehicle (0 mg/kg) or 5 mg/kg brensocatib (BID; 10 mg/kg/day). After 8 consecutive days of dosing, the animals were maintained without further treatment until prescribed sacrifice (days: 1, 3, 6, 8, and 10 days post final dose). Plasma was collected from animals during the first 24 h of dosing at −0.5 (half-hour prior to dosing), 1, 8, 9, and 24 h post initial dose. Note that the 8- and 24-h plasma samples were prior to the afternoon dose and prior to the second day dose, respectively. Plasma was used for PK analysis via LC-MS/MS. On prescribed days, animals were sacrificed, and the hind limb bones (femurs and tibias) were collected at necropsy for bone marrow analysis of NSP activities by kinetic enzymatic assays.
as §1, §2
The Pierce™ BCA Protein Assay Kit was used to measure the total protein of the samples after lysis to allow for subsequent normalization. The manufacturer’s instructions for use were followed when performing this assay on a portion of the sample lysates which were diluted in PBS, the same diluent as used for preparation of the standard. Plates were read on the Biotek Synergy plate reader with Gen5 software.

[3] = system: PR3; design: method as in Cipolla et al., 2023; conditions: Phase 2 trial in NCFBE (WILLOW); ref Cipolla et al., 2023; cited from earlier work
[4] = system: CatG; design: method as in Cipolla et al., 2023; conditions: Phase 2 trial in NCFBE (WILLOW); ref Cipolla et al., 2023; cited from earlier work
[5] = system: NSPs (NE, PR3, CatG); experiment: PD onset study, bone marrow NSP activities (all three NSPs), C57BL/6 mice; type: in vivo; conditions: 5 mg/kg BID
Procedure: A 14-day PD onset study was performed in female C57BL/6 mice dosed BID. Mice were dosed by oral gavage either with vehicle (0 mg/kg) or 5 mg/kg brensocatib (BID; 10 mg/kg/day) for 1, 4, 7, 10, or 14 consecutive days. Plasma was collected from animals during the first 24 h of dosing at 1, 2, 8, 9, 10, and 24 h post the initial dose. Note the 8- and 24-h plasma samples were prior to the afternoon dose and the second day dose (if applicable), respectively. Plasma was used for PK analysis via LC-MS/MS. […]
Bone marrow lysates prepared as described above were diluted and plated onto 96-well assay plates to quantify NSP activities as described previously ([Basso et al., 2022]). Briefly, peptide substrates for NE (N-Methoxysuccinyl-Ala-Ala-Pro-Val-7-amido-4-methylcoumarin; Sigma; St. Louis, MO; Excitation/Emission at 350/450 nm), PR3 ((7-Methoxycoumarin-4-yl)acetyl-lysyl-(picolinoyl)-Tyr-Asp-Ala-Lys-Gly-Asp-N-3-(2-4-dinitrophenyl)-2-3-diaminopropyonyl-NH2); GenScript; Piscataway, NJ; Excitation/Emission at 340/430 nm), and CatG (N-Succinyl-Ala-Ala-Pro-Phe p nitroanilide; Sigma; Absorbance at 405 nm) were added at a final assay concentration of 100 μM, 40 μM, and 200 μM, respectively, and either fluorescence or absorbance was quantified using a Synergy microplate reader (BioTek; Winooski, VT). […]

[6] = after 8 days of 5 mg/kg BID, curve fit with free min and max

Cn1c(=O)oc2ccc(-c3ccc(C[C@@H](C#N)NC(=O)[C@@H]4CNCCCO4)cc3)cc21 [brensocatib]
Reduction of PR3 activity vs vehicle ([1]; BID highest dose (20 mg/kg/day)): 68%
Reduction of PR3 activity vs vehicle ([1]; QD highest dose (30 mg/kg/day)): 72%
Combined BID and QD percent reduction, PR3 ([1]; highest dose level 20/30 (BID/QD) mg/kg/day): 70%
Change From Vehicle Control (%) PR3 ([1]; oral BID 0.2 mg/kg/day): +23% (p = 0.8292)
Change From Vehicle Control (%) PR3 ([1]; oral BID 2 mg/kg/day): −31% (p = 0.6727)
Change From Vehicle Control (%) PR3 ([1]; oral BID 20 mg/kg/day): −68% (p = 0.0907)
Change From Vehicle Control (%) PR3 ([1]; oral QD 0.3 mg/kg/day): −34% (p = 0.4869)
Change From Vehicle Control (%) PR3 ([1]; oral QD 3 mg/kg/day): −59% (p = 0.0837)
Change From Vehicle Control (%) PR3 ([1]; oral QD 30 mg/kg/day): −72% (p = 0.0285)
Recovery: Time to reach 50% recovery, PR3 [2, 6]: 1.4 days
Recovery: Time to reach 90% recovery, PR3 [2, 6]: 5.2 days
Recovery: Time to reach 95% recovery, PR3 [2, 6]: 6.2 days
Recovery: Time to reach 100% recovery, PR3 [2, 6]: 7.5 days
Percent change from vehicle PR3 ([2]; 1 day recovery after 8 days of 5 mg/kg BID): −63% (p < 0.0001)
Percent change from vehicle PR3 ([2]; 3 days recovery after 8 days of 5 mg/kg BID): −28% (p = 0.0024)
Percent change from vehicle PR3 ([2]; 6 days recovery after 8 days of 5 mg/kg BID): −14% (p = 0.3753)
Percent change from vehicle PR3 ([2]; 8 days recovery after 8 days of 5 mg/kg BID): +5% (p = 0.9691)
Percent change from vehicle PR3 ([2]; 10 days recovery after 8 days of 5 mg/kg BID): +16% (p = 0.1549)
sputum PR3 activity [3]: Dose-dependent reductions
sputum CatG activity [4]: Dose-dependent reductions
Time to maximum reduction in NSP activities (observed) ([5]; visually observed): ~7 days
Time to maximum reduction in NSP activities (with modeling) ([5]; with modeling): ~8 days
